# US8232279B2, “Pyrazolopyrimidine derivatives having biological activity on serotonin receptor 5-HT2c” (Korea Institute of Science and Technology, priority 2009, dated 2012)
# Target: T1, human recombinant 5-HT2C receptor (Homo sapiens, UniProt P28335)
# T1 construct: expressed in transfected cells
# T1 sequence (P28335 33-458): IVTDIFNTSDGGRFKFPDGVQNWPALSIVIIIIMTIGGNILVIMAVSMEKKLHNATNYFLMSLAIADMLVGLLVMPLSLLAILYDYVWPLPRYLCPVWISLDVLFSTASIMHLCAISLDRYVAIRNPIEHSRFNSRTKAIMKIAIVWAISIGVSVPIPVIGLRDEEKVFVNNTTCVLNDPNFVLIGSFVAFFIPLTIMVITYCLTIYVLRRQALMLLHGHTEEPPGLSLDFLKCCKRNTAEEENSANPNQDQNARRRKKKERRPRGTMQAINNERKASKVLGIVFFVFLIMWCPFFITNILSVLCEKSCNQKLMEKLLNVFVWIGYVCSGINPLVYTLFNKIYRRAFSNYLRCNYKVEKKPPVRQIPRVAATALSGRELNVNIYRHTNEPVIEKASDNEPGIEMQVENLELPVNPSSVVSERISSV
# Assay: [3H]Mesulergine binding to serotonin 5-HT2C receptor
# Conditions: [3H]Mesulergine (1 nM); membranes from CHO-K1 cell line expressing human recombinant 5-HT2C receptor; 30 min at 37° C.; read-out: Affinity for 5-HT2C receptor (IC50)
# Method: [^3H]Mesulergine Binding to Serotonin 5-HT2C Receptor
# Frozen membranes from stable CHO—K1 cell line expressing the human recombinant 5-HT2C receptor were used. For the binding assay, [^3H]Mesulergine (1 nM), receptor membrane (4 ug/well) and test compounds were added into 50 mM Tris-HCl (pH 7.7) buffer containing 0.1% ascorbic acid and 10 uM pargyline. Nonspecific binding was determined using 0.5 uM mianserin. The incubations were performed for 30 min at 37° C., and these were terminated by rapid filtration through Whatman GF/C glass fiber filters presoaked in 1% BSA. Then, the resultant was washed with cold 50 mM Tris-HCl buffer. The filter was covered with MeltiLex, sealed in a sample bag followed by drying in the microwave oven, and counted by MicroBeta Plus (Wallac, Finland). Nonspecific binding was determined in the presence of mianserin (0.5 uM). Competition binding studies were carried out with 7-8 varied concentrations of the test compounds run in duplicate tubes, and isotherms from three assays were calculated by computerized nonlinear regression analysis (GraphPad Prism Program, San Diego, USA) to yield IC50 values (Table 1).
row,IC50,Structure (SMILES)
1,86.9 nM,"CN1CCN(c2nc(Nc3ccccc3)c3cnn(C)c3n2)CC1 [Comp. 3, 1-methyl-6-(4-methylpiperazine-1-yl)-N-phenyl-1H-pyrazolo[3,4-d]pyrimidine-4-amine]"
2,8490 nM,"CCN(CC)c1nc(Nc2ccc(C)c(C)c2)c2cnn(C)c2n1 [Comp. 4, N^4-(3,4-dimethylphenyl)-N^6,N^6-diethyl-1-methyl-1H-pyrazolo[3,4-d]pyrimidine-4,6-diamine]"
3,991 nM,"CCN(CC)c1nc(Nc2ccc(Cl)cc2)c2cnn(C)c2n1 [Comp. 5, N^4-(4-chlorophenyl)-N^6,N^6-diethyl-1-methyl-1H-pyrazolo[3,4-d]pyrimidine-4,6-diamine]"
4,29.4 nM,"CN1CCN(c2nc(Nc3ccc(Cl)cc3)c3cnn(C)c3n2)CC1 [Comp. 6, N^6-(4-chlorophenyl)-1-methyl-6-(4-methylpiperazine-1-yl)-1H-pyrazolo[3,4-d]pyrimidine-4-amine]"
5,242 nM,"CCN(CC)c1nc(Nc2ccccc2C)c2cnn(C)c2n1 [Comp. 7, N^6,N^6-diethyl-1-methyl-N^4-o-tolyl-1H-pyrazolo[3,4-d]pyrimidine-4,6-diamine]"
6,7790 nM,"CNc1nc(Nc2ccc(F)cc2)c2cnn(C)c2n1 [Comp. 8, N^4-(4-fluorophenyl)-N^6,1-dimethyl-1H-pyrazolo[3,4-d]pyrimidine-4,6-diamine]"
7,> 1000 nM,"CCNc1nc(Nc2ccc(F)cc2)c2cnn(C)c2n1 [Comp. 9, N^6-ethyl-N^4-(4-fluorophenyl)-1-methyl-1H-pyrazolo[3,4-d]pyrimidine-4,6-diamine]"
8,5710 nM,"Cn1ncc2c(Nc3ccc(F)cc3)nc(NC3CCCCC3)nc21 [Comp. 14, N^6-cyclohexyl-N^4-(4-fluorophenyl)-1-methyl-1H-pyrazolo[3,4-d]pyrimidine-4,6-diamine]"
9,2590 nM,"Cn1ncc2c(Nc3ccc(F)cc3)nc(NCc3ccccc3)nc21 [Comp. 16, N^6-benzyl-N4-(4-fluorophenyl)-1-methyl-1H-pyrazolo[3,4-d]pyrimidine-4,6-diamine]"
10,5830 nM,"Cc1ccc(CNc2nc(Nc3ccc(F)cc3)c3cnn(C)c3n2)cc1 [Comp. 17, N^4-(4-fluorophenyl)-1-methyl-N^6-(4-methylbenzyl)-1H-pyrazolo[3,4-d]pyrimidine-4,6-diamine]"
11,4030 nM,"CN(C)c1nc(Nc2ccc(F)cc2)c2cnn(C)c2n1 [Comp. 19, N^4-(4-fluorophenyl)-N^6,N^6,1-trimethyl-1H-pyrazolo[3,4-d]pyrimidine-4,6-diamine]"
12,3310 nM,"CCN(CC)c1nc(Nc2ccc(F)cc2)c2cnn(C)c2n1 [Comp. 20, N^6,N^6-diethyl-N^4-(4-fluorophenyl)-1-methyl-1H-pyrazolo[3,4-d]pyrimidine-4,6-diamine]"
13,2070 nM,"Cn1ncc2c(Nc3ccc(F)cc3)nc(N3CCOCC3)nc21 [Comp. 21, N-(4-fluorophenyl)-1-methyl-6-morpholino-1H-pyrazolo[3,4-d]pyrimidine-4-amine]"
14,1300 nM,"Cn1ncc2c(Nc3ccc(F)cc3)nc(N3CCCCC3)nc21 [Comp. 22, N-(4-fluorophenyl)-1-methyl-6-(piperidine-1-yl)-1H-pyrazolo[3,4-d]pyrimidine-4-amine]"
15,3820 nM,"CC1CC(C)CN(c2nc(Nc3ccc(F)cc3)c3cnn(C)c3n2)C1 (stereo not drawn) [Comp. 23, 6-(3,5-dimethylpiperidine-1-yl)-N-(4-fluorophenyl)-1-methyl-1H-pyrazolo[3,4-d]pyrimidine-4-amine]"
16,1500 nM,"CC1CCN(c2nc(Nc3ccc(F)cc3)c3cnn(C)c3n2)CC1 [Comp. 24, N-(4-fluorophenyl)-1-methyl-6-(4-methylpiperidine-1-yl)-1H-pyrazolo[3,4-d]pyrimidine-4-amine]"
17,494 nM,"Cn1ncc2c(Nc3ccc(F)cc3)nc(N3CCN(CCO)CC3)nc21 [Comp. 26, 2-(4-(4-(4-fluorophenylamino)-1-methyl-1H-pyrazolo[3,4-d]pyrimidine-6-yl)piperazine-1-yl)ethanol]"
18,836 nM,"Cn1ncc2c(Nc3ccc(F)cc3)nc(N3CCN(Cc4ccccc4)CC3)nc21 [Comp. 27, 6-(4-benzylpiperazine-1-yl)-N-(4-fluorophenyl)-1-methyl-1H-pyrazolo[3,4-d]pyrimidine-4-amine]"
19,416 nM,"Cn1ncc2c(Nc3ccc(F)cc3)nc(N3CCN(c4ccccc4)CC3)nc21 [Comp. 28, N-(4-fluorophenyl)-1-methyl-6-(4-phenylpiperazine-1-yl)-1H-pyrazolo[3,4-d]pyrimidine-4-amine]"
20,148 nM,"Cn1ncc2c(Nc3ccc(F)cc3)nc(N3CCN(c4ccc(F)cc4)CC3)nc21 [Comp. 29, N-(4-fluorophenyl)-6-(4-(4-fluorophenyl)piperazine-1-yl)-1-methyl-1H-pyrazolo[3,4-d]pyrimidine-4-amine]"
21,1720 nM,"COc1ccccc1N1CCN(c2nc(Nc3ccc(F)cc3)c3cnn(C)c3n2)CC1 [Comp. 30, N-(4-fluorophenyl)-6-(4-(2-methoxyphenyl)piperazine-1-yl)-1-methyl-1H-pyrazolo[3,4-d]pyrimidine-4-amine]"
22,5420 nM,"CCN(CC)c1nc(Nc2cccc(OC)c2)c2cnn(C)c2n1 [Comp. 31, N^6,N^6-diethyl-N^4-(3-methoxyphenyl)-1-methyl-1H-pyrazolo[3,4-d]pyrimidine-4,6-diamine]"
23,7.8 nM,"COc1cccc(Nc2nc(N3CCN(C)CC3)nc3c2cnn3C)c1 [Comp. 32, N-(3-methoxyphenyl)-1-methyl-6-(4-methylpiperazine-1-yl)-1H-pyrazolo[3,4-d]pyrimidine-4-amine]"
24,1080 nM,"COc1cccc(Nc2nc(N3CCN(c4ccc(F)cc4)CC3)nc3c2cnn3C)c1 [Comp. 33, 6-(4-(4-fluorophenyl)piperazine-1-yl)-N-(3-methoxyphenyl)-1-methyl-1H-pyrazolo[3,4-d]pyrimidine-4-amine]"

row,Structure (SMILES),IC50
1,"Cn1ncc2c(Nc3ccc(F)cc3)nc(NCCCO)nc21 [Comp. 10, 3-(4-(4-fluorophenylamino)-1-methyl-1H-pyrazolo[3,4-d]pyrimidine-6-ylamino)propane-1-ol]",> 1000 nM
2,"COCCNc1nc(Nc2ccc(F)cc2)c2cnn(C)c2n1 [Comp. 11, N^4-(4-fluorophenyl)-N^6-(2-methoxyethyl)-1-methyl-1H-pyrazolo[3,4-d]pyrimidine-4,6-diamine]",> 1000 nM
3,"COCCCNc1nc(Nc2ccc(F)cc2)c2cnn(C)c2n1 [Comp. 12, N^4-(4-fluorophenyl)-N^6-(3-methoxypropyl)-1-methyl-1H-pyrazolo[3,4-d]pyrimidine-4,6-diamine]",> 1000 nM
4,"C=CCNc1nc(Nc2ccc(F)cc2)c2cnn(C)c2n1 [Comp. 13, N^6-allyl-N^4-(4-fluorophenyl)-1-methyl-1H-pyrazolo[3,4-d]pyrimidine-4,6-diamine]",> 1000 nM
5,"Cn1ncc2c(Nc3ccc(F)cc3)nc(NC3CCCC3)nc21 [Comp. 15, N^6-cyclopentyl-N^4-(4-fluorophenyl)-1-methyl-1H-pyrazolo[3,4-d]pyrimidine-4,6-diamine]",> 1000 nM
6,"Cn1ncc2c(Nc3ccc(F)cc3)nc(NCCN3CCOCC3)nc21 [Comp. 18, N^4-(4-fluorophenyl)-1-methyl-N^6-(2-morpholinoethyl)-1H-pyrazolo[3,4-d]pyrimidine-4,6-diamine]",> 1000 nM
7,"CN1CCN(c2nc(Nc3ccc(F)cc3)c3cnn(C)c3n2)CC1 [Comp. 25, N-(4-fluorophenyl)-1-methyl-6-(4-methylpiperazine-1-yl)-1H-pyrazolo[3,4-d]pyrimidine-4-amine]",85.8 nM
8,"CN1CCN(c2nc(Nc3ccc(F)cc3)c3cnn(C)c3n2)CC1 [Comp. 35, N-(4-fluorophenyl)-1-methyl-6-(4-methylpiperazine-1-yl)-1H-pyrazolo[3,4-d]pyrimidine-4-amine]",20.1 nM

# Same assay, conditions: read-out: Affinity for 5-HT2C receptor (IC50)
row,Structure (SMILES),IC50
1,"COc1ccc(Nc2nc(N3CCN(c4ccc(F)cc4)CC3)nc3c2cnn3C)cc1 [Comp. 34, 6-(4-(4-fluorophenyl)piperazine-1-yl)-N-(4-methoxyphenyl)-1-methyl-1H-pyrazolo[3,4-d]pyrimidine-4-amine]",1180 nM
